Results on 34 compounds are retold here after patent US9776995B2, “Bicyclic sulfonamide compounds as sodium channel inhibitors” (AMGEN INC., priority 2013, dated 2017).

The target of the first assay is Nav 1.7 (Homo sapiens (Human), UniProt Q15858). Briefly: in-vitro Nav 1.7 PX data. It is filed as cell-based. The note with it: PatchXpress (PX), in vitro.
Chain of Nav 1.7 (Q15858 whole entry): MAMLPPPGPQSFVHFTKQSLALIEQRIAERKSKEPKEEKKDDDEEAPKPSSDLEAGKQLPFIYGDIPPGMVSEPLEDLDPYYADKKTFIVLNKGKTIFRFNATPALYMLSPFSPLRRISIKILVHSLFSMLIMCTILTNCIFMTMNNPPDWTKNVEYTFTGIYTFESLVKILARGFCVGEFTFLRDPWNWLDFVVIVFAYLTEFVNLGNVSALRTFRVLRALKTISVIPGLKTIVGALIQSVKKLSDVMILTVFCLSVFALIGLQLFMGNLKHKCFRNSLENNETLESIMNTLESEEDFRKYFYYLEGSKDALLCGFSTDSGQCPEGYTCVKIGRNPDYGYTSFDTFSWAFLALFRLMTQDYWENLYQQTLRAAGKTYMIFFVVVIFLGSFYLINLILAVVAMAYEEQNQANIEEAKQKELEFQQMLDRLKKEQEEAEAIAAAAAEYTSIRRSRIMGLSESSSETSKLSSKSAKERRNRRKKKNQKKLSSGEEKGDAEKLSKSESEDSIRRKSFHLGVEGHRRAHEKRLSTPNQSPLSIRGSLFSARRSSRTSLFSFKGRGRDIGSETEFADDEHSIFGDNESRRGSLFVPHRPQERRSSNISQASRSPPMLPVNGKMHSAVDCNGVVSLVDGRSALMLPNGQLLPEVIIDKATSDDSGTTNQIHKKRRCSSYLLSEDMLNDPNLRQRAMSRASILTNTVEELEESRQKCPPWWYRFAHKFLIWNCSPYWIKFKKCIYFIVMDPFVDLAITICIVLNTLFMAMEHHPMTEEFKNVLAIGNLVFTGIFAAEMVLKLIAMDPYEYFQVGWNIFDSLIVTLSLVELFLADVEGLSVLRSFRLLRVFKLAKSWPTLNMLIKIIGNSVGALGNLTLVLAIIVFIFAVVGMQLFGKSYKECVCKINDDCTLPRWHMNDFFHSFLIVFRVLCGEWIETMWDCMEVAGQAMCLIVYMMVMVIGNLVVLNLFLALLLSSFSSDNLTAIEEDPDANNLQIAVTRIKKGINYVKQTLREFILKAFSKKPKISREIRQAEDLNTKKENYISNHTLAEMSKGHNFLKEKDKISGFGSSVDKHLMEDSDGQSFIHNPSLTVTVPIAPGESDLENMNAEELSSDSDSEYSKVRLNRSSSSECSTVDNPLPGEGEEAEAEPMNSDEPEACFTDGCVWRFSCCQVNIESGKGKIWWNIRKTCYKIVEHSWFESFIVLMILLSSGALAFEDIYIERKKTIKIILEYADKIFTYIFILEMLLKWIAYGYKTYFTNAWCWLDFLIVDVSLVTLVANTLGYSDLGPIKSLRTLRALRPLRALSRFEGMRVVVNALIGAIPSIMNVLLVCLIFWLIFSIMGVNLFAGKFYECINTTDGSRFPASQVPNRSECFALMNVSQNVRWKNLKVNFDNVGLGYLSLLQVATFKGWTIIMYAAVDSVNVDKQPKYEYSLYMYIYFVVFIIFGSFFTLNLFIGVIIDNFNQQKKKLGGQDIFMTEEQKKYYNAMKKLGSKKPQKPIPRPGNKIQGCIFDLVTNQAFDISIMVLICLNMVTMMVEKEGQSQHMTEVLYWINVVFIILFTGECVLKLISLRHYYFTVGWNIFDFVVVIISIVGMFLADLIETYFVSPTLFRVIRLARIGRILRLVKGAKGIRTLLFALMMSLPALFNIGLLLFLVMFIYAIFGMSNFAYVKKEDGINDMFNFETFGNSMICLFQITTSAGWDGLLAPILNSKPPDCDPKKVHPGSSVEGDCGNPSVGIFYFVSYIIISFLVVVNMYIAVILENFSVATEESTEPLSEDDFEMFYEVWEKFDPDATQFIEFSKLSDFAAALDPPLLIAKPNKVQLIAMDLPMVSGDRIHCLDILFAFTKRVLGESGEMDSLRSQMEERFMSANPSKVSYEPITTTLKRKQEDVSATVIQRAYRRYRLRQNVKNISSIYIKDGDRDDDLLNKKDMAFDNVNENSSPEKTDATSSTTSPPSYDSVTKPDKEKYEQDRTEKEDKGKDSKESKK
The IC50 is the concentration needed to halve the response being measured. High values mean weaker potency in that assay, low ones greater potency in that assay. Turning to `COc1ccc(-c2nccc3cc(S(=O)(=O)Nc4ccncn4)ccc23)c(NCC(C)(C)C)n1` [Example 70, 1-(2-((2,2-dimethylpropyl)amino)-6-methoxy-3-pyridinyl)-N-4-pyrimidinyl-6-isoquinolinesulfonamide], the midpoint of inhibition, the IC50, lay at 2510 nM.

For the compound `COc1nc(N2CCC(F)(F)CC2)ccc1-c1nccc2cc(S(=O)(=O)Nc3ccncn3)ccc12` [Example 71, 1-(6-(4,4-difluoro-1-piperidinyl)-2-methoxy-3-pyridinyl)-N-4-pyrimidinyl-6-isoquinolinesulfonamide], the IC50 was 834 nM.

For the compound `COc1nc(N2CCCC2)ccc1-c1nccc2cc(S(=O)(=O)Nc3ccncn3)ccc12` [Example 72, 1-(2-methoxy-6-(1-pyrrolidinyl)-3-pyridinyl)-N-4-pyrimidinyl-6-isoquinolinesulfonamide], the half-inhibitory concentration (IC50) came out at 7710 nM.

`COc1nc(NC2CCC(F)(F)CC2)ccc1-c1nccc2cc(S(=O)(=O)Nc3ccncn3)ccc12` [Example 74, 1-(6-((4,4-difluorocyclohexyl)amino)-2-methoxy-3-pyridinyl)-N-4-pyrimidinyl-6-isoquinolinesulfonamide]: inhibition was half-maximal at 811 nM (IC50).

In turn, `COc1nc(OC2CCC(F)(F)CC2)ccc1-c1nccc2cc(S(=O)(=O)Nc3ccncn3)ccc12` [Example 75, 1-(6-((4,4-difluorocyclohexyl)oxy)-2-methoxy-3-pyridinyl)-N-4-pyrimidinyl-6-isoquinolinesulfonamide] returned an IC50 of 727 nM.

`COc1cc(-c2ccc(Cl)c(C)c2)c(F)cc1-c1nccc2cc(S(=O)(=O)Nc3cccnn3)ccc12` [Example 87, 1-(4′-chloro-2-fluoro-5-methoxy-3′-methyl-4-biphenylyl)-N-3-pyridazinyl-6-isoquinolinesulfonamide] registered an IC50 of 178 nM.

In the case of `COc1cc(-c2ccc(Cl)c(C)c2)c(F)cc1-c1nccc2cc(S(=O)(=O)Nc3ncccn3)ccc12` [Example 88, 1-(4′-chloro-2-fluoro-5-methoxy-3′-methyl-4-biphenylyl)-N-2-pyrimidinyl-6-isoquinolinesulfonamide], the IC50 worked out at 227 nM.

In the case of `COc1cc(-c2ccc(F)c(C)c2)c(F)cc1-c1nccc2cc(S(=O)(=O)Nc3ccon3)ccc12` [Example 89, 1-(2,4′-difluoro-5-methoxy-3′-methyl-4-biphenylyl)-N-3-isoxazolyl-6-isoquinolinesulfonamide], the IC50 was 96.4 nM.

On to `COc1cc(-c2ccc(Cl)c(C)c2)c(F)cc1-c1nccc2cc(S(=O)(=O)Nc3ccon3)ccc12` [Example 90, 1-(4′-chloro-2-fluoro-5-methoxy-3′-methyl-4-biphenylyl)-N-3-isoxazolyl-6-isoquinolinesulfonamide], for which the IC50 is 59.5 nM.

The compound `COc1cc(-c2ccc(C)c(Cl)c2)c(F)cc1-c1nccc2cc(S(=O)(=O)Nc3ccon3)ccc12` [Example 91, 1-(3′-chloro-2-fluoro-5-methoxy-4′-methyl-4-biphenylyl)-N-3-isoxazolyl-6-isoquinolinesulfonamide] yielded an IC50 of 101 nM.

With `COc1cc(-c2cc(F)cnc2OC)c(F)cc1-c1nccc2cc(S(=O)(=O)Nc3ncccn3)ccc12` [Example 92, 1-(5-fluoro-4-(5-fluoro-2-methoxy-3-pyridinyl)-2-methoxyphenyl)-N-2-pyrimidinyl-6-isoquinolinesulfonamide], the half-maximal inhibitory concentration (IC50) came to 278 nM.

In turn, `COc1cc(-c2cc(F)cnc2OC)c(F)cc1-c1nccc2cc(S(=O)(=O)Nc3ccon3)ccc12` [Example 93, 1-(5-fluoro-4-(5-fluoro-2-methoxy-3-pyridinyl)-2-methoxyphenyl)-N-3-isoxazolyl-6-isoquinolinesulfonamide] gave a half-maximal inhibitory concentration (IC50) of 67.7 nM.

For `COc1cc(-c2ccc(F)c(C)c2)c(Cl)cc1-c1nccc2cc(S(=O)(=O)Nc3ccon3)ccc12` [Example 94, 1-(2-chloro-4′-fluoro-5-methoxy-3′-methyl-4-biphenylyl)-N-3-isoxazolyl-6-isoquinolinesulfonamide], the midpoint of inhibition, the IC50, lay at 50.6 nM.

`COc1cc(-c2ccc(Cl)c(F)c2)c(F)cc1-c1nccc2cc(S(=O)(=O)Nc3ccon3)ccc12` [Example 95, 1-(4′-chloro-2,3′-difluoro-5-methoxy-4-biphenylyl)-N-3-isoxazolyl-6-isoquinolinesulfonamide] had an IC50 of 69 nM.

For `COc1cc(-c2ccc(C)c(Cl)c2)c(Cl)cc1-c1nccc2cc(S(=O)(=O)Nc3ccon3)ccc12` [Example 96, 1-(2,3′-dichloro-5-methoxy-4′-methyl-4-biphenylyl)-N-3-isoxazolyl-6-isoquinolinesulfonamide], the IC50 stood at 73.8 nM.

`COc1cc(-c2cccc(Cl)c2)c(F)cc1-c1nccc2cc(S(=O)(=O)Nc3ncccn3)ccc12` [Example 97, 1-(3′-chloro-2-fluoro-5-methoxy-4-biphenylyl)-N-2-pyrimidinyl-6-isoquinolinesulfonamide]: the IC50 was 111 nM.

As for `COc1cc(-c2cc(F)cc(F)c2)c(F)cc1-c1nccc2cc(S(=O)(=O)Nc3ccon3)ccc12` [Example 98, N-3-isoxazolyl-1-(2,3′,5′-trifluoro-5-methoxy-4-biphenylyl)-6-isoquinolinesulfonamide], the IC50 is 34.5 nM.

Compound `COc1cc(-c2cc(F)cnc2OC)c(F)cc1-c1nccc2cc(S(=O)(=O)Nc3ccsn3)ccc12` [Example 99, 1-(5-fluoro-4-(5-fluoro-2-methoxy-3-pyridinyl)-2-methoxyphenyl)-N-3-isothiazolyl-6-isoquinolinesulfonamide] showed an IC50 of 66.3 nM.

Still in this assay, the particulars now being: in-vitro Nav 1.7 PX data.
`COc1cc(C#N)c(-c2cc(F)cc(F)c2)cc1-c1nccc2cc(S(=O)(=O)Nc3ccon3)ccc12` [Example 139, 1-(6-cyano-3′,5′-difluoro-4-methoxy-3-biphenylyl)-N-3-isoxazolyl-6-isoquinolinesulfonamide] displayed an IC50 of 15300 nM.

The same assay, now with this note: in-vitro PX data.
Compound `COc1cc(-c2ccc(Cl)c(F)c2)c(Cl)cc1-c1nccc2cc(S(=O)(=O)Nc3ccon3)ccc12` [Example 101, 1-(2,4′-dichloro-3′-fluoro-5-methoxy-4-biphenylyl)-N-3-isoxazolyl-6-isoquinolinesulfonamide] had an IC50 of 73.9 nM.

For the compound `COc1cc(-c2cccc(C(F)(F)F)c2)c(F)cc1-c1ncnc2cc(S(=O)(=O)Nc3ccon3)ccc12` [Example 102, 4-(2-fluoro-5-methoxy-3′-(trifluoromethyl)-4-biphenylyl)-N-3-isoxazolyl-7-quinazolinesulfonamide], the 50% inhibitory concentration (IC50) was found to be 22.9 nM.

On to `COc1cc(-c2ccc(Cl)c(C)c2)c(F)cc1-c1ncnc2cc(S(=O)(=O)Nc3ccon3)ccc12` [Example 103, 4-(4′-chloro-2-fluoro-5-methoxy-3′-methyl-4-biphenylyl)-N-3-isoxazolyl-7-quinazolinesulfonamide], for which the IC50 came to 24 nM.

Turning to `COc1cc(-c2cccc(Cl)c2)c(F)cc1-c1ncnc2cc(S(=O)(=O)Nc3ccon3)ccc12` [Example 104, 4-(3′-chloro-2-fluoro-5-methoxy-4-biphenylyl)-N-3-isoxazolyl-7-quinazolinesulfonamide], the IC50 was 8.4 nM.

Compound `COc1cc(-c2cc(F)cnc2OC)c(Cl)cc1-c1nccc2cc(S(=O)(=O)Nc3ccon3)ccc12` [Example 105, 1-(5-chloro-4-(5-fluoro-2-methoxy-3-pyridinyl)-2-methoxyphenyl)-N-3-isoxazolyl-6-isoquinolinesulfonamide] came in with an IC50 of 29.3 nM.

The compound `COc1cc(-c2cccc(F)c2)c(C#N)cc1-c1nccc2cc(S(=O)(=O)Nc3ncccn3)ccc12` [Example 109, 1-(2-cyano-3′-fluoro-5-methoxy-4-biphenylyl)-N-2-pyrimidinyl-6-isoquinolinesulfonamide] returned an IC50 of 241 nM.

In turn, `COc1cc(Br)c(Cl)cc1-c1nccc2cc(S(=O)(=O)Nc3ccon3)ccc12` [Example 117, 1-(4-bromo-5-chloro-2-methoxyphenyl)-N-3-isoxazolyl-6-isoquinolinesulfonamide] had an IC50 of 108 nM.

In the case of `COc1cc(-c2ccc(Cl)c(C)c2)c(Cl)cc1-c1nccc2cc(S(=O)(=O)Nc3ccon3)ccc12` [Example 119, 1-(2,4′-dichloro-5-methoxy-3′-methyl-4-biphenylyl)-N-3-isoxazolyl-6-isoquinolinesulfonamide], 73.6 nM corresponded to half-maximal inhibition (IC50).

In the case of `COc1cc(-c2cc(F)cc(F)c2)ccc1-c1nccc2cc(S(=O)(=O)Nc3cc(C)on3)ccc12` [Example 126, 1-(3′,5′-difluoro-3-methoxy-4-biphenylyl)-N-(5-methyl-3-isoxazolyl)-6-isoquinolinesulfonamide], the IC50 amounted to 4190 nM.

`COc1cc(-c2cc(F)cc(F)c2)ccc1-c1nccc2cc(S(=O)(=O)Nc3ccno3)ccc12` [Example 128, 1-(3′,5′-difluoro-3-methoxy-4-biphenylyl)-N-5-isoxazolyl-6-isoquinolinesulfonamide] gave a concentration for half-maximal inhibition (IC50) of 3510 nM.

`COc1cc(-c2cc(F)cc(F)c2)ccc1-c1nccc2cc(S(=O)(=O)Nc3cncc(C)n3)ccc12` [Example 131, 1-(3′,5′-difluoro-3-methoxy-4-biphenylyl)-N-(6-methyl-2-pyrazinyl)-6-isoquinolinesulfonamide] returned a concentration for half-maximal inhibition (IC50) of 1630 nM.

Turning to `COc1cc(-c2cc(F)cc(F)c2)ccc1-c1nccc2cc(S(=O)(=O)Nc3ncc(C#N)s3)ccc12` [Example 132, N-(5-cyano-1,3-thiazol-2-yl)-1-(3′,5′-difluoro-3-methoxy-4-biphenylyl)-6-isoquinolinesulfonamide], the IC50 stood at 695 nM.

In turn, `COc1cc(-c2cc(F)cc(F)c2)ccc1-c1nccc2cc(S(=O)(=O)Nc3nnc(C)s3)ccc12` [Example 133, 1-(3′,5′-difluoro-3-methoxy-4-biphenylyl)-N-(5-methyl-1,3,4-thiadiazol-2-yl)-6-isoquinolinesulfonamide] came in with an IC50 of 1560 nM.

The compound `COc1nsc(NS(=O)(=O)c2ccc3c(-c4ccc(-c5cc(F)cc(F)c5)cc4OC)nccc3c2)n1` [Example 134, 1-(3′,5′-difluoro-3-methoxy-4-biphenylyl)-N-(3-methoxy-1,2,4-thiadiazol-5-yl)-6-isoquinolinesulfonamide] returned an IC50 of 1280 nM.

`COc1cc(-c2cc(F)cc(F)c2)ccc1-c1nccc2cc(S(=O)(=O)NC(C)=O)ccc12` [Example 136, N-((1-(3′,5′-difluoro-3-methoxy-4-biphenylyl)-6-isoquinolinyl)sulfonyl)acetamide] registered a 50% inhibitory concentration (IC50) of 11200 nM.
